“Also recorded” adds a separate entry of the source.
Experiments:
myrosinase = conditions: cited from earlier work
[1] = system: primary cultures of human neurons exposed to Aβ1-42 aggregates; experiment: Prevention of neuronal loss caused by Aβ1-42 aggregates (MTT assay); format: cell-based; conditions: compounds at 0 h, 24 h, 48 h; 1 μM Aβ1-42 aggregates at 24 h; MTT at 72 h
Method: Next, we determined whether these compounds, administered independently or formulated in combination, could protect primary cultures of human neurons against neurotoxic effects of Aβ1-42 aggregates, an in vitro condition relevant to AD pathology. We evaluated both prevention and rescue of neuronal death by NADH, NAD+ and PEITC (FIG. 7). In both experiments, the cultured human neurons were exposed to 1 nM, 10 nM, 100 nM, 1 μM, 10 μM, 20 μM, 40 μM, 50 μM, 75 μM, and 100 μM of each compound, either individually or in equimolar combinations. […] In the prevention experiment, cultures were exposed to fresh compounds every 24 h over the 48 h timeline of this experiment (i.e., 0 h, 24 h, and 48 h) to resemble a pharmacological regimen of once daily dosing. At 24 h, we added 1 μM of Aβ1-42 aggregates to the cell culture media and measured cell viability at 72 h using the MTT assay (Online Method, FIG. 7A). […] In the rescue experiments, primary cultures of human neurons were exposed to 1 μM of Aβ1-42 aggregates at 0 h for a period of 48 h to model existing cellular damage under conditions relevant to AD. After 24 h incubation with Aβ1-42, we added NADH, NAD+, PEITC, NADH/PEITC, and NAD+/PEITC directly to the culture media containing Aβ1-42 and incubated the cultured human neurons for an additional 24 h when cell viability was measured using our MTT assay.
To determine the optimal dosage of the two formulations for neuronal rescue and microglial phagocytosis stimulation, we treated the primary cultures of human neurons and primary cultures of human microglia in the prevention settings respectively with exhaustive combination of individual dosage of 10 μM, 20 μM, 40 μM, 50 μM, 75 μM, and 100 μM.

[2] = system: primary cultures of human microglia exposed to Aβ1-42 aggregates; experiment: Aβ1-42 uptake (phagocytosis) by microglia, rescue setting; format: cell-based; conditions: 10 dosages tested
Source text: There is considerable interest in microglia-targeted therapies for AD, in part due to the phagocytotic functionality of these cells that can promote neuronal recovery and/or repair. Indeed, phagocytosis of insoluble Aβ by microglia can facilitate CNS clearance of Aβ aggregates and limit formation of amyloid plaques (Ronaldson & Davis, 2020). Indeed, Aβ can bind to receptors at the microglial cell surface, an event that can trigger release of proinflammatory cytokines such as TNF-α and IL-1β, factors that are known to cause neuronal damage (Wang et al. 2015). Additionally, Jiang and colleagues discovered that triggering receptor expressed in myeloid cells 1 (TREM1) can promote Aβ phagocytosis by microglia (Jiang et al. 2016). […] To determine if the natural compounds individually or in combination could promote phagocytosis in microglia, we designed prevention and rescue experiments to measure Aβ1-42 uptake in primary cultures of human microglia via intracellular fluorescence (Online method). […] After 24 h, we added 1 μM of Aβ1-42 aggregates to the treated media and measured cell viability at 72 h using the Aβ uptake assay (Online Method, FIG. 8A). […] Uptake of Aβ1-42 was then measured 24 h later (i.e., at the 48 h experimental time point, FIG. 8B).

3xTg AD mice = experiment: Treatment of 3xTg AD mice: brain Aβ, tau and proteomics; format: in vivo, mouse; conditions: for levels of neurotoxic Aβ42 / ratio of Aβ42 to Aβ40: 3xTg AD mice treated with individual compound; for ratio of p231-tau to total tau: 3xTg mice treated with individual compound
[3] = system: humanized-Tau (hTau) mice; experiment: Treatment of humanized-Tau (hTau) mice: brain p231Tau; format: in vivo, mouse
[4] = human subjects, after the consumption of 100 g watercress; cited from earlier work
[5] = rat, in vivo, cited from earlier work
[6] = cited from earlier work

Compound: O=S(=O)(O)ON=C(Cc1ccccc1)SC1OC(CO)C(O)C(O)C1F (stereo not drawn) [2-F-2-deoxybenzylglucosinolate]
- inhibition of myrosinase (myrosinase): inhibits the enzyme by trapping one of the glutamic acid residues in the active site, Glu 409

Compound: NC(=O)c1ccc[n+]([C@@H]2O[C@H](COP(=O)([O-])OP(=O)(O)OC[C@H]3O[C@@H](n4cnc5c(N)ncnc54)[C@H](O)[C@@H]3O)[C@@H](O)[C@H]2O)c1 [NAD+, oxidized nicotinamide adenine dinucleotide]
- prevention of neuronal loss as compared to the negative control condition [1]: significantly prevented neuronal loss
- number of dosages that significantly rescued microglial phagocytosis of Aβ1-42 [2]: eight
- levels of neurotoxic Aβ42 (3xTg AD mice): significant reduction
- ratio of Aβ42 to Aβ40 (3xTg AD mice): significantly reduced; also recorded: significant reduction
- ratio of p231-tau to total tau (3xTg AD mice): significantly reduced

Compound: NC(=O)C1=CN([C@@H]2O[C@H](COP(=O)(O)OP(=O)(O)OC[C@H]3O[C@@H](n4cnc5c(N)ncnc54)[C@H](O)[C@@H]3O)[C@@H](O)[C@H]2O)C=CC1 [NADH, reduced nicotinamide adenine dinucleotide]
- prevention of neuronal loss as compared to the negative control condition [1]: significantly prevented neuronal loss
- number of dosages that significantly rescued microglial phagocytosis of Aβ1-42 [2]: three
- levels of neurotoxic Aβ42 (3xTg AD mice): significant reduction
- ratio of Aβ42 to Aβ40 (3xTg AD mice): significantly reduced; also recorded: significant reduction
- ratio of p231-tau to total tau (3xTg AD mice): significantly reduced

Compound: S=C=NCCc1ccccc1 [PEITC, phenethyl isothiocyanate]
- prevention of neuronal loss as compared to the negative control condition [1]: significantly prevented neuronal loss
- levels of neurotoxic Aβ42 (3xTg AD mice): significant reduction
- ratio of Aβ42 to Aβ40 (3xTg AD mice): significantly reduced; also recorded: significant reduction
- ratio of p231-tau to total tau (3xTg AD mice): significantly reduced
- level of hyperphosphorylated Tau (p231Tau) [3]: significant reduction
- ratio of p231Tau to Tau [3]: significant reduction
- peak plasma concentration [4]: about 928.5±250 nM
- bioavailability ([5]; po): 90-114%
- clearance ([5]; po): low
- protein binding ([5]; po): high
- bioavailability with repeated dosing [5]: Increased

Compound: O=S(=O)(O)O [Sulfate]
- inhibition of myrosinase (myrosinase): competitive inhibitor

Compound: CN1C(=N)N[C@](C)(c2cc(NC(=O)c3ccc(F)cn3)ccc2F)CS1(=O)=O [Verubecestat]
- CSF Aβ levels ([6]; patients with AD / early-stage AD): decrease CSF Aβ levels

Compound: C[C@@]1(c2cc(NC(=O)c3ccc(C#N)cn3)ccc2F)C=CSC(N)=N1 [atabecestat]
- cognitive assessment scores in treated patients ([6]; phase two clinical trials and long-term safety and tolerability study): trend of worsening cognitive assessment scores

Compound: CC(C)[C@H](O)C(=O)N[C@@H](C)C(=O)N[C@@H]1C(=O)N(C)CCc2ccccc21 [semagacestat]
- functional or cognitive ability in treated patients ([6]; phase three trial): lack of efficacy and a worsening of function and cognition

Compound: OC[C@H]1O[C@@](CO)(O[C@H]2O[C@H](CO)[C@@H](O)[C@H](O)[C@H]2O)[C@@H](O)[C@@H]1O [sucrose, reference compound]
- prevention of neuronal loss as compared to the negative control condition [1]: did not prevent any neuronal death

Source: patent publication US20240156846A1, “COMPOSITIONS AND METHODS FOR TREATING NEURODEGENERATIVE DISORDERS” (Arizona Board of Regents on Behalf of the University of …, priority 2020, published 2024)
